Where no end group is shown, it is not given here. fluorescein = fluorescein (Fl)
System: human endothelial coronary artery cells (HCAECs) which are known in the literature to express LOX-1
Experiment: Fluorescent confocal imaging of labeled peptide bound to HCAECs
Type: cell-based
Settings: HCAECs grown in glass slides, fluorescent confocal microscope, FIG. 2
Experimental: Images in the assay may be acquired using a laser confocal microscope or an Imager. For example, images of peptides bound to cells can be obtained using a laser confocal microscope as follows: HCAE cells can be grown on high quality borosilicate 8-chambered glass slides (Electron Microscopy Sciences, Fort Washington, Pa.). Then, about 10 μL of 1 mg/ml of an aqueous solution of a labeled peptide can be added to the cells and incubated for 1 hour. Subsequently, the cells preferably are washed with HBSS buffer three times. The cells then can be fixed with 4% formaldehyde solution over 10 minutes. After a final wash with buffer, the slide is imaged. Images preferably are acquired using an OLYMPUS laser scanning confocal microscope, model Fluoview 300, using Ar-ion laser (selecting 488 nm line) and a 510-nm long-pass filter. Images can be acquired using two channels: reflected light and fluorescent mode channel, or an overlay of both channels.
The experimental conditions for imaging the peptide-labeled HCAECs are described previously.

**Q.** How did the “binding to / localization on HCAECs (fluorescent image)” value turn out when “Fl-KKGG-FQTPPQL (fluorescein-KKGGFQTPPQL) [peptide FQTPPQL conjugated with fluorescein via KKGG linker]” was run?
**A.** shown to bind

— US20050089471A1, “Labeled ligands for lectin-like oxidized low-density lipoprotein receptor (LOX-1)” (priority 2003, published 2005)
